{"source": "paper PMC5218480", "about": "(PLoS ONE, 2017)", "tested_on": "MV-4-11 cells", "assay": "Gene expression microarray analysis (Affymetrix PrimeView) and GSEA", "format": "cell-based, human", "set-up": "RFU PODN (11730768_x_at) / Fold change /veh PODN (11730768_x_at) / RFU LINC00158 (11744669_a_at) / Fold change /veh LINC00158 (11744669_a_at) / RFU DUSP10 (11751237_a_at) / Fold change /veh DUSP10 (11751237_a_at) / RFU ID3 (11757404_x_at) / Fold change /veh ID3 (11757404_x_at) / RFU PLEKHG5 (11737974_s_at) / Fold change /veh PLEKHG5 (11737974_s_at) / RFU LRRC4B (11730491_at) / Fold change /veh LRRC4B (11730491_at) / RFU GIMAP4 (11747438_a_at) / Fold change /veh GIMAP4 (11747438_a_at) / RFU KRT8 (11758183_x_at) / Fold change /veh KRT8 (11758183_x_at) / RFU CNN1 (11734310_a_at) / Fold change /veh CNN1 (11734310_a_at) / RFU VPS37D (11726825_at) / Fold change /veh VPS37D (11726825_at) / RFU C10orf10 (11716522_x_at) / Fold change /veh C10orf10 (11716522_x_at) / RFU KIR2DL2 /// KIR2DL4 /// KIR2DL5A /// KIR2DL5B /// KIR2DS1 /// KIR2DS2 /// KIR2DS3 /// KIR2DS4 /// KIR3DL3 /// KIR3DL3 /// KIR3DS1 (11738374_at) / Fold change /veh KIR2DL2 /// KIR2DL4 /// KIR2DL5A /// KIR2DL5B /// KIR2DS1 /// KIR2DS2 /// KIR2DS3 /// KIR2DS4 /// KIR3DL3 /// KIR3DL3 /// KIR3DS1 (11738374_at) / RFU C1QL1 (11718748_at) / Fold change /veh C1QL1 (11718748_at) / RFU TMPRSS4 (11747572_a_at) / Fold change /veh TMPRSS4 (11747572_a_at) / RFU HAMP (11756126_x_at) / Fold change /veh HAMP (11756126_x_at) / RFU RNFT2 (11725882_a_at) / Fold change /veh RNFT2 (11725882_a_at) / RFU NR4A2 (11747474_a_at) / Fold change /veh NR4A2 (11747474_a_at) / RFU ABCC12 (11746883_a_at) / Fold change /veh ABCC12 (11746883_a_at) / RFU TMEM136 (11760407_x_at) / Fold change /veh TMEM136 (11760407_x_at) / RFU CLDN22 /// WWC2 (11732394_at) / Fold change /veh CLDN22 /// WWC2 (11732394_at) / RFU HLA-DPB1 (11760878_x_at) / Fold change /veh HLA-DPB1 (11760878_x_at) / RFU SPINT1 (11716480_a_at) / Fold change /veh SPINT1 (11716480_a_at) / RFU GAP43 (11754022_s_at) / Fold change /veh GAP43 (11754022_s_at) / RFU A4GNT (11735810_at) / Fold change /veh A4GNT (11735810_at) / RFU PRB3 (11715151_x_at) / Fold change /veh PRB3 (11715151_x_at) / RFU TUBB4B (11761932_at) / Fold change /veh TUBB4B (11761932_at) / RFU CAPN14 (11732068_a_at) / Fold change /veh CAPN14 (11732068_a_at) / RFU TMCC2 (11721928_a_at) / Fold change /veh TMCC2 (11721928_a_at) / RFU IRGQ (11745062_a_at) / Fold change /veh IRGQ (11745062_a_at) / RFU FAM174B (11720279_a_at) / Fold change /veh FAM174B (11720279_a_at) / RFU TMPRSS4 (11748680_a_at) / Fold change /veh TMPRSS4 (11748680_a_at) / RFU FAM212B (11763350_a_at) / Fold change /veh FAM212B (11763350_a_at) / RFU PLEKHG5 (11743358_a_at) / Fold change /veh PLEKHG5 (11743358_a_at) / RFU ZSCAN30 (11745921_a_at) / Fold change /veh ZSCAN30 (11745921_a_at) / RFU CMKLR1 (11741424_a_at) / Fold change /veh CMKLR1 (11741424_a_at) / RFU LOC101060620 /// MAPK8IP1 (11723275_at) / Fold change /veh LOC101060620 /// MAPK8IP1 (11723275_at) / RFU SPTSSB (11747773_x_at) / Fold change /veh SPTSSB (11747773_x_at) / RFU PRSS12 (11739890_at) / Fold change /veh PRSS12 (11739890_at) / RFU BIN1 (11741810_x_at) / Fold change /veh BIN1 (11741810_x_at) / RFU WNT11 (11732464_a_at) / Fold change /veh WNT11 (11732464_a_at) / RFU C10orf10 (11716521_a_at) / Fold change /veh C10orf10 (11716521_a_at) / RFU C5orf56 (11738089_at) / Fold change /veh C5orf56 (11738089_at) / RFU CYB561 (11721691_x_at) / Fold change /veh CYB561 (11721691_x_at) / RFU ANKRD19P (11752326_a_at) / Fold change /veh ANKRD19P (11752326_a_at) / RFU OR2T12 /// OR2T33 /// OR2T8 (11738714_s_at) / Fold change /veh OR2T12 /// OR2T33 /// OR2T8 (11738714_s_at) / RFU VCAN (11748164_a_at) / Fold change /veh VCAN (11748164_a_at) / RFU JSRP1 (11732532_at) / Fold change /veh JSRP1 (11732532_at) / RFU KRTAP10-11 (11738290_x_at) / Fold change /veh KRTAP10-11 (11738290_x_at) / RFU MYO3A (11730013_a_at) / Fold change /veh MYO3A (11730013_a_at) / RFU EBF3 (11725865_a_at) / Fold change /veh EBF3 (11725865_a_at) / RFU CAMK2N1 (11719241_x_at) / Fold change /veh CAMK2N1 (11719241_x_at) / RFU C5orf56 (11738088_a_at) / Fold change /veh C5orf56 (11738088_a_at) / RFU OLFML3 (11715873_a_at) / Fold change /veh OLFML3 (11715873_a_at) / RFU LOC100653217 /// NTM (11731650_a_at) / Fold change /veh LOC100653217 /// NTM (11731650_a_at) / RFU MAPK11 (11762145_a_at) / Fold change /veh MAPK11 (11762145_a_at) / RFU FIZ1 (11724087_x_at) / Fold change /veh FIZ1 (11724087_x_at) / RFU OASL (11726364_x_at) / Fold change /veh OASL (11726364_x_at) / RFU SOX15 (11748057_x_at) / Fold change /veh SOX15 (11748057_x_at) / RFU CD79A (11719716_a_at) / Fold change /veh CD79A (11719716_a_at) / RFU HIST1H1D (11736915_at) / Fold change /veh HIST1H1D (11736915_at) / RFU CASKIN2 (11723855_a_at) / Fold change /veh CASKIN2 (11723855_a_at) / RFU LOC730098 (11760151_x_at) / Fold change /veh LOC730098 (11760151_x_at) / RFU OR4N2 (11742367_at) / Fold change /veh OR4N2 (11742367_at) / RFU PRRT2 (11749266_a_at) / Fold change /veh PRRT2 (11749266_a_at) / RFU SNX32 (11753110_a_at) / Fold change /veh SNX32 (11753110_a_at) / RFU CDHR5 (11726645_a_at) / Fold change /veh CDHR5 (11726645_a_at) / RFU RCAN1 (11760418_a_at) / Fold change /veh RCAN1 (11760418_a_at) / RFU FAM167A (11723789_a_at) / Fold change /veh FAM167A (11723789_a_at) / RFU FAM26E (11764081_at) / Fold change /veh FAM26E (11764081_at) / RFU ISYNA1 (11749810_s_at) / Fold change /veh ISYNA1 (11749810_s_at) / RFU ACY1 (11761880_at) / Fold change /veh ACY1 (11761880_at) / RFU 11764098_at / Fold change /veh 11764098_at / RFU SAMD14 (11745864_x_at) / Fold change /veh SAMD14 (11745864_x_at) / RFU NPB (11741838_a_at) / Fold change /veh NPB (11741838_a_at) / RFU TMPRSS6 (11731388_a_at) / Fold change /veh TMPRSS6 (11731388_a_at) / RFU KRTAP10-2 (11738614_at) / Fold change /veh KRTAP10-2 (11738614_at) / RFU ARHGAP8 /// PRR5-ARHGAP8 (11727945_x_at) / Fold change /veh ARHGAP8 /// PRR5-ARHGAP8 (11727945_x_at) / RFU KRTAP5-7 /// NADSYN1 (11734609_at) / Fold change /veh KRTAP5-7 /// NADSYN1 (11734609_at) / RFU RASL12 (11751679_a_at) / Fold change /veh RASL12 (11751679_a_at) / RFU CDKN2B (11736163_a_at) / Fold change /veh CDKN2B (11736163_a_at) / RFU PRF1 (11729649_at) / Fold change /veh PRF1 (11729649_at) / RFU, ZNF638 /// ZNF638-IT1 / Fold change vs veh, ZNF638 /// ZNF638-IT1 / RFU, PANK3 / Fold change vs veh, PANK3 / RFU, SH3YL1 / Fold change vs veh, SH3YL1 / RFU, ZEB2 / Fold change vs veh, ZEB2 / RFU, NRIP1 / Fold change vs veh, NRIP1 / RFU, PTTG1IP / Fold change vs veh, PTTG1IP / RFU, CAPN2 / Fold change vs veh, CAPN2 / RFU, MED14 / Fold change vs veh, MED14 / RFU, SNORA58 / Fold change vs veh, SNORA58 / RFU, C1orf63 / Fold change vs veh, C1orf63 / RFU, LRRFIP1 / Fold change vs veh, LRRFIP1 / RFU, NDUFAF7 / Fold change vs veh, NDUFAF7 / RFU, SLC12A2 / Fold change vs veh, SLC12A2 / RFU, IBTK / Fold change vs veh, IBTK / RFU, ESF1 / Fold change vs veh, ESF1 / Fold change vs veh, TMEM50B / RFU, TAOK1 / Fold change vs veh, TAOK1 / RFU, ACBD3 / Fold change vs veh, ACBD3 / RFU, TMA16 / Fold change vs veh, TMA16 / RFU, RWDD3 / Fold change vs veh, RWDD3 / RFU, BCAT1 / Fold change vs veh, BCAT1 / RFU, EDEM3 / Fold change vs veh, EDEM3 / RFU, TMEM33 / Fold change vs veh, TMEM33 / RFU, WDR75 / Fold change vs veh, WDR75 / RFU, AHCTF1 / Fold change vs veh, AHCTF1 / RFU, TFRC / Fold change vs veh, TFRC / RFU, ZDHHC17 / Fold change vs veh, ZDHHC17 / RFU, NOM1 / Fold change vs veh, NOM1 / RFU, ARL8B / Fold change vs veh, ARL8B / RFU, ZBTB11 / Fold change vs veh, ZBTB11 / RFU, TAMM41 / Fold change vs veh, TAMM41 / RFU, KIAA1704 /// LOC100996395 / Fold change vs veh, KIAA1704 /// LOC100996395 / RFU, ING1 / Fold change vs veh, ING1 / RFU, TRMT61B / Fold change vs veh, TRMT61B / RFU, FUBP3 / Fold change vs veh, FUBP3 / RFU, TP53 / Fold change vs veh, TP53 / RFU, TNKS2 / Fold change vs veh, TNKS2 / RFU, ZFP14 / Fold change vs veh, ZFP14 / RFU, ACTR2 / Fold change vs veh, ACTR2 / RFU, PPP3R1 / Fold change vs veh, PPP3R1 / RFU, PIK3R1 / Fold change vs veh, PIK3R1 / RFU, HNRNPA1 / Fold change vs veh, HNRNPA1 / RFU, RNF170 / Fold change vs veh, RNF170 / RFU, ZNF28 / Fold change vs veh, ZNF28 / RFU, RNGTT / Fold change vs veh, RNGTT / RFU, OGT / Fold change vs veh, OGT / RFU, BRD1 / Fold change vs veh, BRD1 / RFU, MARS / Fold change vs veh, MARS / RFU, ZNF655 / Fold change vs veh, ZNF655 / RFU, FAHD1 / Fold change vs veh, FAHD1 / RFU, BDP1 / Fold change vs veh, BDP1 / RFU, LRRCC1 / Fold change vs veh, LRRCC1 / RFU, ARID1A / Fold change vs veh, ARID1A / RFU, ZNF146 / Fold change vs veh, ZNF146 / RFU, ZNF330 / Fold change vs veh, ZNF330 / RFU, GPN3 / Fold change vs veh, GPN3 / RFU, C9orf123 / Fold change vs veh, C9orf123 / RFU, N4BP2L2 / Fold change vs veh, N4BP2L2 / RFU, ARFIP1 / Fold change vs veh, ARFIP1 / RFU, FAM179B / Fold change vs veh, FAM179B / RFU, BCL10 / Fold change vs veh, BCL10 / RFU, UHRF1BP1L / Fold change vs veh, UHRF1BP1L / RFU, BET1 / Fold change vs veh, BET1 / RFU, CNOT2 / Fold change vs veh, CNOT2 / RFU, ZNF268 / Fold change vs veh, ZNF268 / Fold change vs veh, ZNF507 / RFU, DGCR2 / Fold change vs veh, DGCR2 / RFU, WDSUB1 / Fold change vs veh, WDSUB1 / Fold change vs veh, HSP90B1 /// MIR3652 / RFU, ADSS / Fold change vs veh, ADSS / RFU, GK / Fold change vs veh, GK / RFU, ZNF148 / Fold change vs veh, ZNF148 / RFU, TAF9 / Fold change vs veh, TAF9 / RFU, SLC1A5 / Fold change vs veh, SLC1A5 / RFU, SLMO2 / Fold change vs veh, SLMO2 / RFU, ABCC4 / Fold change vs veh, ABCC4 / RFU, LOC101060439 /// RAP1B / Fold change vs veh, LOC101060439 /// RAP1B / RFU, RFX7 / Fold change vs veh, RFX7 / RFU, GTPBP10 / Fold change vs veh, GTPBP10 / RFU, CNEP1R1 / Fold change vs veh, CNEP1R1 / RFU, BIVM-ERCC5 /// ERCC5 / Fold change vs veh, BIVM-ERCC5 /// ERCC5 / RFU, ILF3 / Fold change vs veh, ILF3 / RFU 11762660_at / Fold change /veh 11762660_at / RFU VCAN (11757783_s_at) / Fold change /veh VCAN (11757783_s_at) / RFU DDX43 (11728927_at) / Fold change /veh DDX43 (11728927_at) / RFU KRT8 (11758188_x_at) / Fold change /veh KRT8 (11758188_x_at) / RFU NKD1 (11759106_at) / Fold change /veh NKD1 (11759106_at) / RFU SRD5A1 (11742802_a_at) / Fold change /veh SRD5A1 (11742802_a_at) / RFU TPSAB1 /// TPSB2 (11721975_s_at) / Fold change /veh TPSAB1 /// TPSB2 (11721975_s_at) / RFU GSTM3 (11746129_a_at) / Fold change /veh GSTM3 (11746129_a_at) / RFU IL23R (11737362_x_at) / Fold change /veh IL23R (11737362_x_at) / RFU TMEM51 (11727254_a_at) / Fold change /veh TMEM51 (11727254_a_at) / RFU PIWIL2 (11732686_x_at) / Fold change /veh PIWIL2 (11732686_x_at) / RFU ORM1 (11744905_x_at) / Fold change /veh ORM1 (11744905_x_at) / RFU CCDC152 (11743942_at) / Fold change /veh CCDC152 (11743942_at) / RFU ECM1 (11717891_a_at) / Fold change /veh ECM1 (11717891_a_at) / RFU IL23R (11748794_a_at) / Fold change /veh IL23R (11748794_a_at) / RFU TNFAIP8L3 (11732012_x_at) / Fold change /veh TNFAIP8L3 (11732012_x_at) / RFU MBOAT4 (11741988_at) / Fold change /veh MBOAT4 (11741988_at) / RFU 11764193_at / Fold change /veh 11764193_at / RFU TMEM53 (11763286_at) / Fold change /veh TMEM53 (11763286_at) / RFU MAGEB2 (11727129_at) / Fold change /veh MAGEB2 (11727129_at) / RFU TMEM200A (11744735_a_at) / Fold change /veh TMEM200A (11744735_a_at) / RFU CCDC152 (11751479_a_at) / Fold change /veh CCDC152 (11751479_a_at) / RFU FAM211A (11726209_a_at) / Fold change /veh FAM211A (11726209_a_at) / RFU RGS16 (11746705_a_at) / Fold change /veh RGS16 (11746705_a_at) / RFU VCAN (11755009_s_at) / Fold change /veh VCAN (11755009_s_at) / RFU RHOB (11743442_s_at) / Fold change /veh RHOB (11743442_s_at) / RFU RGS16 (11720943_a_at) / Fold change /veh RGS16 (11720943_a_at) / RFU RGS16 (11720944_at) / Fold change /veh RGS16 (11720944_at) / RFU, VPS4B / Fold change vs veh, VPS4B / RFU, CREB1 / Fold change vs veh, CREB1 / RFU, DNAJC13 / Fold change vs veh, DNAJC13 / RFU, GNAQ / Fold change vs veh, GNAQ / RFU, CDK5R1 / Fold change vs veh, CDK5R1 / RFU, ZRANB3 / Fold change vs veh, ZRANB3 / RFU, CUL4A / Fold change vs veh, CUL4A / RFU, CCNY / Fold change vs veh, CCNY / RFU, UFL1 / Fold change vs veh, UFL1 / RFU, COG3 / Fold change vs veh, COG3 / RFU, DIAPH2 / Fold change vs veh, DIAPH2 / RFU, SKA2 / Fold change vs veh, SKA2 / RFU, AFF3 / Fold change vs veh, AFF3 / RFU, LMF1 / Fold change vs veh, LMF1 / RFU, IPO11 / Fold change vs veh, IPO11 / RFU, DFFB / Fold change vs veh, DFFB / RFU, FOXP1 / Fold change vs veh, FOXP1 / RFU, CARD8 / Fold change vs veh, CARD8 / RFU, STRN3 / Fold change vs veh, STRN3 / RFU, ADK / Fold change vs veh, ADK / RFU, RASSF2 / Fold change vs veh, RASSF2 / RFU, WIPF1 / Fold change vs veh, WIPF1 / RFU, LARP1B / Fold change vs veh, LARP1B / RFU, RASA1 / Fold change vs veh, RASA1 / RFU, RB1 / Fold change vs veh, RB1 / RFU, PPFIA1 / Fold change vs veh, PPFIA1 / RFU, MAT2A / Fold change vs veh, MAT2A / RFU, CCT5 / Fold change vs veh, CCT5 / RFU, WDR92 / Fold change vs veh, WDR92 / RFU, CUX1 / Fold change vs veh, CUX1 / RFU, TTC7A / Fold change vs veh, TTC7A / RFU, TMEM135 / Fold change vs veh, TMEM135 / RFU, DEPTOR / Fold change vs veh, DEPTOR / RFU, CPM / Fold change vs veh, CPM / RFU, DNAJB6 / Fold change vs veh, DNAJB6 / RFU, CACNA2D3 / Fold change vs veh, CACNA2D3 / RFU, DTX4 / Fold change vs veh, DTX4 / RFU, TFCP2 / Fold change vs veh, TFCP2 / RFU, GMCL1 /// GMCL1P1 / Fold change vs veh, GMCL1 /// GMCL1P1 / RFU, AEBP2 / Fold change vs veh, AEBP2 / RFU, SNHG1 /// SNORD22 /// SNORD25 /// SNORD26 /// SNORD27 /// SNORD28 /// SNORD29 /// SNORD31 / Fold change vs veh, SNHG1 /// SNORD22 /// SNORD25 /// SNORD26 /// SNORD27 /// SNORD28 /// SNORD29 /// SNORD31 / Fold change (Aza/veh), C12orf56 (ProbeSet 11735607_a_at) / Fold change (ACY-1035/veh), C12orf56 (ProbeSet 11735607_a_at) / Fold change (Aza/veh), FGFR1OP (ProbeSet 11751329_s_at) / Fold change (ACY-1035/veh), FGFR1OP (ProbeSet 11751329_s_at) / Fold change (Aza/veh), VPS36 (ProbeSet 11739960_a_at) / Fold change (ACY-1035/veh), VPS36 (ProbeSet 11739960_a_at) / RFU SYPL1 (11715823_x_at) / Fold change /veh SYPL1 (11715823_x_at) / RFU IGFBP7 (11715501_s_at) / Fold change /veh IGFBP7 (11715501_s_at) / RFU REEP3 (11722064_at) / Fold change /veh REEP3 (11722064_at) / RFU IGLL1 (11728026_x_at) / Fold change /veh IGLL1 (11728026_x_at): dose or concentration left out as unconfirmed", "conditions": "ProbeSet 11739263_x_at; LIST D", "data": [{"compound": "Nc1ncn([C@@H]2O[C@H](CO)[C@@H](O)[C@H]2O)c(=O)n1", "note": "[azacitidine]", "values": [{"measurement": "Fold change vs veh, VPS4B", "value": 0.80}]}]}
